Test results taken from patent US4496578A, “Antihypertensive sulfur-containing compounds” (Santen Pharmaceutical Co., Ltd., priority 1978, dated 1985).

System: angiotensin I-converting enzyme
Test: Percent inhibition of pressor response to angiotensin I in unanesthetized rats after oral administration (ACE inhibition in vivo)
Set-up: species or system Male Wistar strain rats
Method: As recently it has been clear that the compounds inhibiting angiotensin I-converting enzyme may be the curative potency against both renal hypertension and essential hypertension, the compounds of this invention are evaluated as antihypertensive agents by the following method.
Male Wistar strain rats weighing 200-300 g were used. Under ether anesthesia, polyethylene cannulae are inserted into carotid artery and jugular vein. The cannula to carotid artery is connected to an electric transducer, while the cannula to jugular vein is connected to an apparatus for continuous infusion. After the complete recovery from anesthesia, angiotensin I is infused intravenously in a dose of 300 ng/kg by the apparatus for continuous infusion, and the pressor response is recorded by polygraph (Nihon Koden, RM-150). The compounds of this invention suspended in 0.5% tragacanth solution are addministered orally in a dose of 0.3 ml per 100 g of body weight, and the pressor response to angiotensin I infused intravenously is measured with time.

[1] = 5 min after oral dose, mg/kg: 2 1.8, 2A 1.3, 2B 1.8, 22 1.5, 22A 1.0, 22B 1.4, 32 1.7, 32C 1.3, 64 1.9
[2] = 15 min after oral dose, mg/kg: 2 1.8, 2A 1.3, 2B 1.8, 22 1.5, 22A 1.0, 22B 1.4, 32 1.7, 32C 1.3, 64 1.9
[3] = 25 min after oral dose, mg/kg: 2 1.8, 2A 1.3, 2B 1.8, 22 1.5, 22A 1.0, 22B 1.4, 32 1.7, 32C 1.3, 64 1.9
[4] = 35 min after oral dose, mg/kg: 2 1.8, 2A 1.3, 2B 1.8, 22 1.5, 22A 1.0, 22B 1.4, 32 1.7, 32C 1.3, 64 1.9
[5] = 45 min after oral dose, mg/kg: 2 1.8, 2A 1.3, 2B 1.8, 22 1.5, 22A 1.0, 22B 1.4, 32 1.7, 32C 1.3, 64 1.9
[6] = 55 min after oral dose, mg/kg: 2 1.8, 2A 1.3, 2B 1.8, 22 1.5, 22A 1.0, 22B 1.4, 32 1.7, 32C 1.3, 64 1.9
[7] = 65 min after oral dose, mg/kg: 2 1.8, 2A 1.3, 2B 1.8, 22 1.5, 22A 1.0, 22B 1.4, 32 1.7, 32C 1.3, 64 1.9
[8] = 75 min after oral dose, mg/kg: 2 1.8, 2A 1.3, 2B 1.8, 22 1.5, 22A 1.0, 22B 1.4, 32 1.7, 32C 1.3, 64 1.9
[9] = 85 min after oral dose, mg/kg: 2 1.8, 2A 1.3, 2B 1.8, 22 1.5, 22A 1.0, 22B 1.4, 32 1.7, 32C 1.3, 64 1.9
[10] = 95 min after oral dose, mg/kg: 2 1.8, 2A 1.3, 2B 1.8, 22 1.5, 22A 1.0, 22B 1.4, 32 1.7, 32C 1.3, 64 1.9
[11] = 105 min after oral dose, mg/kg: 2 1.8, 2A 1.3, 2B 1.8, 22 1.5, 22A 1.0, 22B 1.4, 32 1.7, 32C 1.3, 64 1.9
[12] = 115 min after oral dose, mg/kg: 2 1.8, 2A 1.3, 2B 1.8, 22 1.5, 22A 1.0, 22B 1.4, 32 no value, 32C 1.3, 64 1.9

C[C@H](CSC(=O)c1ccccc1)C(=O)N1CSC[C@H]1C(=O)O [Compound 22B, (4R)-3-[(2S)-S-benzoyl-3-mercapto-2-methylpropanoyl]-4-thiazoldinecarboxylic acid]
Inhibition (%) of pressor response to angiotensin I [1]: 45.4% | Inhibition (%) of pressor response to angiotensin I [2]: 60.7% | Inhibition (%) of pressor response to angiotensin I [3]: 60.6% | Inhibition (%) of pressor response to angiotensin I [4]: 45.4% | Inhibition (%) of pressor response to angiotensin I [5]: 45.4% | Inhibition (%) of pressor response to angiotensin I [6]: 45.4% | Inhibition (%) of pressor response to angiotensin I [7]: 42.4% | Inhibition (%) of pressor response to angiotensin I [8]: 36.4% | Inhibition (%) of pressor response to angiotensin I [9]: 30.3% | Inhibition (%) of pressor response to angiotensin I [10]: 21.2% | Inhibition (%) of pressor response to angiotensin I [11]: 21.2% | Inhibition (%) of pressor response to angiotensin I [12]: 21.2%

C[C@H](CS)C(=O)N1C(C(=O)O)CCC1c1ccccc1O (stereo partly drawn) [Compound 2A]
Inhibition (%) of pressor response to angiotensin I [1]: 20.0% | Inhibition (%) of pressor response to angiotensin I [2]: 40.0% | Inhibition (%) of pressor response to angiotensin I [3]: 37.5% | Inhibition (%) of pressor response to angiotensin I [4]: 36.5% | Inhibition (%) of pressor response to angiotensin I [5]: 33.7% | Inhibition (%) of pressor response to angiotensin I [6]: 30.0% | Inhibition (%) of pressor response to angiotensin I [7]: 28.2% | Inhibition (%) of pressor response to angiotensin I [8]: 20.0% | Inhibition (%) of pressor response to angiotensin I [9]: 30.0% | Inhibition (%) of pressor response to angiotensin I [10]: 24.8% | Inhibition (%) of pressor response to angiotensin I [11]: 21.0% | Inhibition (%) of pressor response to angiotensin I [12]: 20.0%

C[C@H](CSC(=O)c1ccccc1)C(=O)N1C(C(=O)O)CCC1c1ccccc1O (stereo partly drawn) [Compound 2B]
Inhibition (%) of pressor response to angiotensin I [1]: 7.9% | Inhibition (%) of pressor response to angiotensin I [2]: 36.8% | Inhibition (%) of pressor response to angiotensin I [3]: 36.8% | Inhibition (%) of pressor response to angiotensin I [4]: 36.8% | Inhibition (%) of pressor response to angiotensin I [5]: 45.7% | Inhibition (%) of pressor response to angiotensin I [6]: 31.6% | Inhibition (%) of pressor response to angiotensin I [7]: 31.6% | Inhibition (%) of pressor response to angiotensin I [8]: 31.6% | Inhibition (%) of pressor response to angiotensin I [9]: 21.1% | Inhibition (%) of pressor response to angiotensin I [10]: 21.1% | Inhibition (%) of pressor response to angiotensin I [11]: 15.8% | Inhibition (%) of pressor response to angiotensin I [12]: 15.8%

O=C(O)[C@@H]1CSC(c2ccccc2O)N1C(=O)CCS (stereo partly drawn) [Compound 32C]
Inhibition (%) of pressor response to angiotensin I [1]: 53.3% | Inhibition (%) of pressor response to angiotensin I [2]: 62.9% | Inhibition (%) of pressor response to angiotensin I [3]: 64.7% | Inhibition (%) of pressor response to angiotensin I [4]: 63.7% | Inhibition (%) of pressor response to angiotensin I [5]: 54.0% | Inhibition (%) of pressor response to angiotensin I [6]: 49.3% | Inhibition (%) of pressor response to angiotensin I [7]: 47.7% | Inhibition (%) of pressor response to angiotensin I [8]: 38.8% | Inhibition (%) of pressor response to angiotensin I [9]: 34.0% | Inhibition (%) of pressor response to angiotensin I [10]: 30.0% | Inhibition (%) of pressor response to angiotensin I [11]: 30.0% | Inhibition (%) of pressor response to angiotensin I [12]: 31.0%

Cc1ccc(C(=O)SC[C@@H](C)C(=O)N2CSC[C@H]2C(=O)O)cc1 [Compound 22]
Inhibition (%) of pressor response to angiotensin I [1]: 45.2% | Inhibition (%) of pressor response to angiotensin I [2]: 60.4% | Inhibition (%) of pressor response to angiotensin I [3]: 51.4% | Inhibition (%) of pressor response to angiotensin I [4]: 59.0% | Inhibition (%) of pressor response to angiotensin I [5]: 55.0% | Inhibition (%) of pressor response to angiotensin I [6]: 50.8% | Inhibition (%) of pressor response to angiotensin I [7]: 55.0% | Inhibition (%) of pressor response to angiotensin I [8]: 53.5% | Inhibition (%) of pressor response to angiotensin I [9]: 49.4% | Inhibition (%) of pressor response to angiotensin I [10]: 46.5% | Inhibition (%) of pressor response to angiotensin I [11]: 39.8% | Inhibition (%) of pressor response to angiotensin I [12]: 31.6%

C[C@H](CS)C(=O)N1CSC[C@H]1C(=O)O [Compound 22A, (4R)-3-[(2S)-3-mercapto-2-methylpropanoyl]-4-thiazolidinecarboxylic acid]
Inhibition (%) of pressor response to angiotensin I [1]: 34.0% | Inhibition (%) of pressor response to angiotensin I [2]: 51.5% | Inhibition (%) of pressor response to angiotensin I [3]: 49.7% | Inhibition (%) of pressor response to angiotensin I [4]: 45.0% | Inhibition (%) of pressor response to angiotensin I [5]: 37.5% | Inhibition (%) of pressor response to angiotensin I [6]: 30.2% | Inhibition (%) of pressor response to angiotensin I [7]: 30.2% | Inhibition (%) of pressor response to angiotensin I [8]: 30.2% | Inhibition (%) of pressor response to angiotensin I [9]: 28.0% | Inhibition (%) of pressor response to angiotensin I [10]: 19.8% | Inhibition (%) of pressor response to angiotensin I [11]: 10.2% | Inhibition (%) of pressor response to angiotensin I [12]: 8.0%

Cc1ccc(C(=O)SC[C@@H](C)C(=O)N2C(C(=O)O)CCC2c2ccccc2O)cc1 (stereo partly drawn) [Compound 2]
Inhibition (%) of pressor response to angiotensin I [1]: 39.3% | Inhibition (%) of pressor response to angiotensin I [2]: 58.1% | Inhibition (%) of pressor response to angiotensin I [3]: 64.0% | Inhibition (%) of pressor response to angiotensin I [4]: 60.0% | Inhibition (%) of pressor response to angiotensin I [5]: 73.0% | Inhibition (%) of pressor response to angiotensin I [6]: 57.2% | Inhibition (%) of pressor response to angiotensin I [7]: 55.0% | Inhibition (%) of pressor response to angiotensin I [8]: 54.5% | Inhibition (%) of pressor response to angiotensin I [9]: 42.0% | Inhibition (%) of pressor response to angiotensin I [10]: 39.5% | Inhibition (%) of pressor response to angiotensin I [11]: 42.0% | Inhibition (%) of pressor response to angiotensin I [12]: 37.0%

C[C@H](CSC(=O)c1ccccc1)C(=O)N1CSC[C@H]1C(=O)OCOC(=O)C(C)(C)C [Compound 64, (2,2-Dimethyl-1-oxopropoxy)methyl (4R)-3-[(2S)-S-benzoyl-3-mercapto-2-methylpropanoyl]-4-thiazolidinecarboxylate]
Inhibition (%) of pressor response to angiotensin I [1]: 30.0% | Inhibition (%) of pressor response to angiotensin I [2]: 59.5% | Inhibition (%) of pressor response to angiotensin I [3]: 69.5% | Inhibition (%) of pressor response to angiotensin I [4]: 59.9% | Inhibition (%) of pressor response to angiotensin I [5]: 55.7% | Inhibition (%) of pressor response to angiotensin I [6]: 53.5% | Inhibition (%) of pressor response to angiotensin I [7]: 47.1% | Inhibition (%) of pressor response to angiotensin I [8]: 37.2% | Inhibition (%) of pressor response to angiotensin I [9]: 36.5% | Inhibition (%) of pressor response to angiotensin I [10]: 30.8% | Inhibition (%) of pressor response to angiotensin I [11]: 27.8% | Inhibition (%) of pressor response to angiotensin I [12]: 24.5%
